Measured values from patent US10611742B2, “4-oxo-4,5-dihydrothiazole derivative, preparation method and use thereof” (Institute of Pharmacology and Toxicology Academy of …, priority 2015, dated 2020).

Assays:
Format in all cases: cell-based
[1] = median toxic concentration on Vero cell; settings: African green monkey, Vero cells; for CC50: Table 1-1 (therapeutic effect), read-out: TC50 (the source's name); for CC50 at 2 h: Table 2-1 (preventive effect), read-out: TC50
Experimental: (§1) 1. Virus strain: enterovirus EV71 (SZ-98 strain, provided by Chinese Center for Disease Control and Prevention), Vero cell (provided by the Cell Bank of Chinese Academy of Sciences), MRC-5 cell (provided by the Cell Bank of Chinese Academy of Sciences), and RD cell (provided by the Cell Bank of Chinese Academy of Sciences), were subjected to passage culture, respectively, and stored at −80° C.
(§2) 2. Sample treatment: a test sample (Compounds 1-14 and positive control agent) was dissolved in dimethyl sulfoxide (DMSO) to prepare a stock solution, which was stored at −20° C. The stock solution was diluted with DMEM medium (Gibco Company) containing 2% fetal bovine serum (Gibco Company) to prepare a 100 μM solution before use, and was 3-fold diluted with the medium to obtain 8 diluted concentrates.
(§3) 4. Test method: • 4.1 Therapeutic effect: the cells were seeded on a 96-well culture plate, and cultured in a 5% CO2, 37° C. incubator for 24 h. About 100 TCID50 enterovirus EV71 was added to each well. After adsorption at 37° C. for 1 h, the virus solution was discarded, and a drug was added at different diluted concentrates, respectively. Meanwhile, virus control and cell control were set, and cultured at 37° C. […] The virus-inhibition rate of a sample at each concentration was calculated based on the chemiluminescent value, the sample concentration was used as abscissa, and the inhibition rate was used as ordinate, and S-Curve fitting was performed by using Origin software. Half maximal inhibitory concentration (IC50) of each sample for enterovirus EV71 was calculated based on the fitting results. Median toxic concentration (TC50) was determined by the same method. […] To each well, a drug was added at a different diluted concentration, then the cells were cultured at 37° C. for 2 h, and then the drug was discarded. About 100 TCID50 enterovirus EV71 was added to each well, adsorbed at 37° C. for 1.5 h, then the virus solution was discarded, and a maintenance medium free of drug was added. Meanwhile, virus control and cell control were set, and cultured at 37° C. […] The virus-inhibition rate of a sample at each concentration was calculated, and half maximal inhibitory concentration (IC50), median toxic concentration (TC50), and selection index (SI) of each sample for enterovirus EV71 were calculated. The methods for determining and calculating them were as described in Item 4.1

[2] = median toxic concentration on RD cell; settings: human, RD cells; for CC50: read-out: TC50 (the source's name); for CC50 at 2 h: Table 2-2 (preventive effect), read-out: TC50
Experimental: as §1, §2, §3

[3] = test system: enterovirus EV71 (SZ-98 strain); test: anti-EV71 activity, therapeutic effect on Vero cell (CPE inhibition, Celltiter Glo); settings: EV71 (SZ-98 strain), therapeutic effect on Vero cell; read-out: IC50
Experimental: (§4) Test principle: Vero cell, MRC-5 cell, and RD cell were used as host of virus, respectively, and samples were tested for their inhibition of cytopathic effect (CPE) caused by virus.
as §1, §2
(§5) 3. Positive control agent: Con1 (pitstop2) (purchased from AmyJet Scientific Inc., Abcam), a broad-spectrum antiviral inhibitor.
as §3

[4] = test system: enterovirus EV71 (SZ-98 strain); test: anti-EV71 activity, preventive effect on RD cell (CPE inhibition)
Experimental: as §4, §1, §2, §5, §3

[5] = test system: enterovirus EV71 (SZ-98 strain); test: anti-EV71 activity, therapeutic effect on RD cell (CPE inhibition, Celltiter Glo)
Experimental: as §4, §1, §2, §5, §3

[6] = test system: enterovirus EV71 (SZ-98 strain); test: anti-EV71 activity, preventive effect on Vero cell (CPE inhibition)
Experimental: as §4, §1, §2, §5, §3

[7] = test system: enterovirus EV71 (SZ-98 strain); test: anti-EV71 activity, therapeutic effect on MRC-5 cell (CPE inhibition, Celltiter Glo); settings: MRC5
Experimental: as §4, §1, §2, §5, §3

[8] = median toxic concentration on MRC-5 cell; settings: human, MRC-5 cells, Table 1-2 (therapeutic effect), read-out: TC50 (the source's name)
Experimental: as §1, §2, §3

Row | Structure (SMILES) | IC50 [3] | IC50 [4] | IC50 ([5]; EV71 (SZ-98 strain)) | IC50 [6] | IC50 ([5]; Enterovirus, EV71) | CC50 [1] | CC50 at 2 h [1] | CC50 ([2]; Table 1-3 (therapeutic effect)) | CC50 at 2 h [2] | IC50 [7] | CC50 [8] | CC50 [2] | anti-EV71 activity (in words) [5]
1 | COc1cc(/C=C2\SC(NS(=O)(=O)c3cccc4ccccc34)=NC2=O)ccc1O [Compound 2, Naphthalene-1-sulfonic acid [5-(3-methoxy-4-hydroxy-benzylidene)-4-oxo-4,5-dihydro-thiazol-2-yl] amide] | > 7.41 µM | > 7.41 µM | > 7.41 µM | > 7.41 µM |  | 12.8 µM | 12.8 µM | 22.2 µM | 22.2 µM | > 7.41 µM | 22.2 µM |  | 
2 | COc1ccc(/C=C2\SC(NS(=O)(=O)c3cccc4ccccc34)=NC2=O)cc1O [Compound 7, Naphthalene-1-sulfonic acid [5-(3-hydroxy-4-methoxy-benzylidene)-4-oxo-4,5-dihydro-thiazol-2-yl] amide] | > 2.47 µM | > 0.82 µM | > 0.82 µM | > 2.47 µM |  | 7.41 µM | 7.41 µM | 3.56 µM | 3.56 µM | > 2.47 µM | 10.7 µM |  | 
3 | O=C1N=C(NS(=O)(=O)c2cccc3ccccc23)S/C1=C\c1ccc(O)c(Br)c1 [Compound 8, Naphthalene-1-sulfonic acid [5-(3-bromo-4-hydroxy-benzylidene)-4-oxo-4,5-dihydro-thiazol-2-yl] amide] | > 7.41 µM | > 22.2 µM | 22.2 µM | > 7.41 µM |  | 12.8 µM | 12.8 µM | 66.7 µM | 66.7 µM | > 2.47 µM | 9.54 µM |  | better anti-EV71 activity
4 | COc1cccc(OC)c1/C=C1\SC(NS(=O)(=O)c2cccc3ccccc23)=NC1=O [Compound 9, Naphthalene-1-sulfonic acid [5-(2,6-dimethoxy-benzylidene)-4-oxo-4,5-dihydro-thiazol-2-yl] amide] | > 22.2 µM | > 7.41 µM | > 7.41 µM | > 22.2 µM |  | 38.5 µM | 38.5 µM | 12.8 µM | 12.8 µM | > 22.2 µM | 38.5 µM |  | 

Further lines, with some results ahead:

Row | IC50 [3] | IC50 [4] | IC50 ([5]; EV71 (SZ-98 strain)) | IC50 [6] | IC50 ([5]; Enterovirus, EV71) | Structure (SMILES) | CC50 [1] | CC50 at 2 h [1] | CC50 ([2]; Table 1-3 (therapeutic effect)) | CC50 at 2 h [2] | IC50 [7] | CC50 [8] | CC50 [2] | anti-EV71 activity (in words) [5]
5 | 7.41 µM | > 7.41 µM | > 7.41 µM | > 7.41 µM |  | O=C1N=C(NS(=O)(=O)c2cccc3ccccc23)S/C1=C\c1ccc(Cl)cc1Cl [Compound 1, Naphthalene-1-sulfonic acid [5-(2,4-dichloro-benzylidene)-4-oxo-4,5-dihydro-thiazol-2-yl] amide] | 10.7 µM | 10.7 µM | 12.8 µM | 12.8 µM | > 7.41 µM | 12.8 µM |  | 
6 | > 2.47 µM | > 7.41 µM | 5.75 µM | > 2.47 µM | 5.75 µM | O=C1N=C(NS(=O)(=O)c2cccc3ccccc23)S/C1=C\c1ccc(Cl)cc1 [Compound 4, Naphthalene-1-sulfonic acid [5-(4-chloro-benzylidene)-4-oxo-4,5-dihydro-thiazol-2-yl] amide] | 4.28 µM | 4.28 µM |  | 12.8 µM | > 7.41 µM | 12.8 µM | 12.8 µM | better anti-EV71 activity
7 | > 22.2 µM | > 22.2 µM | 15.4 µM | > 22.2 µM |  | O=C1N=C(NS(=O)(=O)c2cccc3ccccc23)S/C1=C\c1cccc(O)c1 [Compound 6, Naphthalene-1-sulfonic acid [5-(3-hydroxy-benzylidene)-4-oxo-4,5-dihydro-thiazol-2-yl] amide] | 38.5 µM | 38.5 µM | 38.5 µM | 38.5 µM | > 22.2 µM | 38.5 µM |  | better anti-EV71 activity
